# Tested on: Plasmodium berghei
# Assay: Luciferase/luciferin-expressing antifolate-resistant parasites were used to infect a culture of HepG2 cells that were pre-incubated with compounds. Infected hepatocytes emit light due to the luciferase reaction. Assay results are presented as the percent inhibition of light emission compared to control. […]
# Type: functional
# Conditions: sporozoite; for IC90: read-out: LUCIFERASE INFECTION ASSAY - IC90
# [1] = PBLUC_HILL_SLOPE 14.7, PBLUC_R_SQUARED 0.767, read-out: LUCIFERASE INFECTION ASSAY - IC50
Structure (SMILES),IC90 [µM],further results
Cc1ccc(NC(=S)N/N=C2\C(=O)Nc3ccc([N+](=O)[O-])cc32)cc1,> 10,"IC50 (PBLUC_HILL_SLOPE 14.8, PBLUC_R_SQUARED 0.511, read-out: LUCIFERASE INFECTION ASSAY - IC50): 8.89 µM"
O=[N+]([O-])c1cc(/C=N/O)ccc1Sc1ccccc1,> 12,"IC50 (PBLUC_HILL_SLOPE 15.1, PBLUC_R_SQUARED 0.212, read-out: LUCIFERASE INFECTION ASSAY - IC50): > 12 µM"
C/N=c1\scc(-c2ccccc2Br)n1/N=C/c1ccc[nH]1,> 10,"IC50 (PBLUC_HILL_SLOPE 15, PBLUC_R_SQUARED 0.188, read-out: LUCIFERASE INFECTION ASSAY - IC50): 9.68 µM"
FC(F)(F)Oc1cccc(-c2cnc3cnc(-c4cccnc4)cn23)c1,> 9.26,"IC50 (PBLUC_HILL_SLOPE 14.8, PBLUC_R_SQUARED 0.205, read-out: LUCIFERASE INFECTION ASSAY - IC50): 8.62 µM"
NC(Cc1ccc(F)cc1)c1csc(Nc2ccc(-c3ccccc3)nn2)n1 (configuration not stated),> 8.43,"IC50 (PBLUC_HILL_SLOPE 14.8, PBLUC_R_SQUARED 0.059, read-out: LUCIFERASE INFECTION ASSAY - IC50): 8.32 µM"
CC(C)Oc1cccc(-c2cn3c(-c4ccc(N(C)C)cc4)cnc3cn2)c1,> 8.86,"IC50 (PBLUC_HILL_SLOPE 15, PBLUC_R_SQUARED 0.312, read-out: LUCIFERASE INFECTION ASSAY - IC50): > 8.86 µM"
Cc1cc(C(=O)Oc2ccccc2C(N)=O)c(C)n1Cc1ccco1,1.27,"IC50 (PBLUC_HILL_SLOPE 14.9, PBLUC_R_SQUARED 0.682, read-out: LUCIFERASE INFECTION ASSAY - IC50): 1.09 µM"
c1ccc(Oc2ccccc2-c2cnn3c(NCc4ccccn4)ccnc23)cc1,> 8.39,"IC50 (PBLUC_HILL_SLOPE 14.9, PBLUC_R_SQUARED 0.143, read-out: LUCIFERASE INFECTION ASSAY - IC50): 8.25 µM"
CCCn1c(NC(=O)c2cc(-c3cccs3)nc3ccccc23)nc2ccccc21,> 10,IC50 [1]: 9.26 µM
O=C(NCc1ccc(-c2cccs2)s1)c1ccc([N+](=O)[O-])s1,> 9.42,"IC50 (PBLUC_HILL_SLOPE 15, PBLUC_R_SQUARED 0.438, read-out: LUCIFERASE INFECTION ASSAY - IC50): 8.73 µM"
O=C(CSc1nnc(C2CC2)o1)NCCC1=CCCCC1,3.33,"IC50 (PBLUC_HILL_SLOPE 15.1, PBLUC_R_SQUARED 0.587, read-out: LUCIFERASE INFECTION ASSAY - IC50): 2.88 µM"
O=C(Nc1ccc(OC(F)(F)F)cc1)Nc1ccccc1SCC(O)Cn1ccc(C(F)(F)F)n1 (configuration not stated),> 6.34,"IC50 (PBLUC_HILL_SLOPE 15.1, PBLUC_R_SQUARED 0.225, read-out: LUCIFERASE INFECTION ASSAY - IC50): 5.88 µM"
Cc1cc(C2=NN/C(=N\C(C)(C)C)SC2)c(C)n1C(C)C,> 10,"IC50 (PBLUC_HILL_SLOPE 15.1, PBLUC_R_SQUARED 0.242, read-out: LUCIFERASE INFECTION ASSAY - IC50): 9.12 µM"
O=C1c2ccccc2O[C@@H](c2ccc([N+](=O)[O-])cc2)[C@@H]1O,> 11.6,"IC50 (PBLUC_HILL_SLOPE 15.1, PBLUC_R_SQUARED 0.277, read-out: LUCIFERASE INFECTION ASSAY - IC50): 10.8 µM"
O=C(NNc1ccc(F)cc1)c1cccc(S(=O)(=O)N2CCc3ccccc3C2)c1,> 10,"IC50 (PBLUC_HILL_SLOPE 14.9, PBLUC_R_SQUARED 0.744, read-out: LUCIFERASE INFECTION ASSAY - IC50): 9.22 µM"
CCN1C(=O)N(Cc2cccc(OC)c2)C(=O)C12CCN(CC(c1ccccc1)c1ccccc1)CC2,> 6.63,"IC50 (PBLUC_HILL_SLOPE 15.1, PBLUC_R_SQUARED 0.228, read-out: LUCIFERASE INFECTION ASSAY - IC50): 6.16 µM"
O=C(NCc1ccccn1)c1nn(CCc2ccccc2)c2c1CN(Cc1ccc(F)cc1)CC2,> 7.03,"IC50 (PBLUC_HILL_SLOPE 15.1, PBLUC_R_SQUARED 0.777, read-out: LUCIFERASE INFECTION ASSAY - IC50): 6.49 µM"
Cc1cccc(/C=C(/C(=O)NCc2ccc(NC(=O)C(C)C)cc2)c2cccs2)c1,4.58,"IC50 (PBLUC_HILL_SLOPE 14.7, PBLUC_R_SQUARED 0.598, read-out: LUCIFERASE INFECTION ASSAY - IC50): 3.95 µM"
O=C(Nc1nc(-c2ccccn2)cs1)c1ccc(=O)n(Cc2ccccc2)n1,9.95,"IC50 (PBLUC_HILL_SLOPE 15.2, PBLUC_R_SQUARED 0.0748, read-out: LUCIFERASE INFECTION ASSAY - IC50): 8.61 µM"
COc1ccc(C(=O)C2CCN(C(=O)C3CC(=O)N(c4ccc(C)c(F)c4)C3)CC2)cc1 (configuration not stated),> 10,"IC50 (PBLUC_HILL_SLOPE 15.1, PBLUC_R_SQUARED 0.128, read-out: LUCIFERASE INFECTION ASSAY - IC50): 9.94 µM"
Cc1noc(C)c1-c1nccc2n[nH]c(-c3ccccc3)c12,> 10,"IC50 (PBLUC_HILL_SLOPE 15.1, PBLUC_R_SQUARED 0.272, read-out: LUCIFERASE INFECTION ASSAY - IC50): 9.26 µM"

Structure (SMILES),IC90 [µM],further results
Cc1ccc(C)c(N2C(=O)C=CC2=O)c1,> 16.4,"IC50 (PBLUC_HILL_SLOPE 15.1, PBLUC_R_SQUARED 0.421, read-out: LUCIFERASE INFECTION ASSAY - IC50): 14.8 µM"
Oc1cccc(-c2cnc3cnc(-c4cccnc4)cn23)c1,> 11.4,"IC50 (PBLUC_HILL_SLOPE 14.9, PBLUC_R_SQUARED 0.072, read-out: LUCIFERASE INFECTION ASSAY - IC50): 10.8 µM"
O=C(c1cccc(F)c1)c1cnc(Nc2cccc(Br)c2)[nH]1,> 9.16,"IC50 (PBLUC_HILL_SLOPE 15, PBLUC_R_SQUARED 0.325, read-out: LUCIFERASE INFECTION ASSAY - IC50): 8.58 µM"
CCOc1cccc(-c2cn3c(-c4ccc(C(=O)N(C)C)cc4)cnc3cn2)c1,3.39,"IC50 (PBLUC_HILL_SLOPE 14.8, PBLUC_R_SQUARED 0.204, read-out: LUCIFERASE INFECTION ASSAY - IC50): 2.92 µM"
Cc1onc(-c2ccccc2)c1C(=O)ON=C1C2CC3CC(C2)CC1C3,> 9.42,"IC50 (PBLUC_HILL_SLOPE 14.9, PBLUC_R_SQUARED 0.433, read-out: LUCIFERASE INFECTION ASSAY - IC50): 8.78 µM"
CCCn1c(NC(=O)c2cccnc2SC)nc2ccccc21,> 10,"IC50 (PBLUC_HILL_SLOPE 14.8, PBLUC_R_SQUARED 0.146, read-out: LUCIFERASE INFECTION ASSAY - IC50): 9.22 µM"
CC(OC(=O)c1cc2sc3ccccc3c2s1)C(=O)N1CCNC1=O (configuration not stated),9.91,"IC50 (PBLUC_HILL_SLOPE 15.1, PBLUC_R_SQUARED 0.0385, read-out: LUCIFERASE INFECTION ASSAY - IC50): 8.57 µM"
COc1ccc2[nH]cc(C(=O)CN3CCC(Cc4ccccc4)CC3)c2c1,> 9.1,"IC50 (PBLUC_HILL_SLOPE 15.2, PBLUC_R_SQUARED 0.148, read-out: LUCIFERASE INFECTION ASSAY - IC50): 8.48 µM"
O=C(CSCc1nc2ccccc2[nH]1)Nc1nc(-c2ccc(NC(=O)c3ccccc3)cc2)cs1,> 10,"IC50 (PBLUC_HILL_SLOPE 14.9, PBLUC_R_SQUARED 0.81, read-out: LUCIFERASE INFECTION ASSAY - IC50): 9.28 µM"
CC(=O)Nc1cccc(-c2cn3c(-c4ccc(C#N)cc4)cnc3cn2)c1,> 9.34,"IC50 (PBLUC_HILL_SLOPE 15, PBLUC_R_SQUARED 0.251, read-out: LUCIFERASE INFECTION ASSAY - IC50): 8.2 µM"
Cc1cc2ncc(C(=O)Nc3nc4c(s3)CN(Cc3ccccc3)CC4)c(C)n2n1,> 10,"IC50 (PBLUC_HILL_SLOPE 15, PBLUC_R_SQUARED 0.627, read-out: LUCIFERASE INFECTION ASSAY - IC50): 9.24 µM"
COc1ccc(CCN2C(=O)N(C(C)C)C(=O)C23CCN(Cc2ccc(Cl)cc2)CC3)cc1,> 7.02,"IC50 (PBLUC_HILL_SLOPE 14.8, PBLUC_R_SQUARED 0.317, read-out: LUCIFERASE INFECTION ASSAY - IC50): 6.11 µM"
Cn1c(N)c(C(=O)COC(=O)c2ccccc2-c2nc3ccccc3s2)c(=O)n(C)c1=O,> 10,IC50 [1]: 9.26 µM
CN(C)c1cccc(-c2cnc3sc(NCc4ccccc4)nn23)c1,3.57,"IC50 (PBLUC_HILL_SLOPE 15, PBLUC_R_SQUARED 0.389, read-out: LUCIFERASE INFECTION ASSAY - IC50): 3.08 µM"
CC(=O)Nc1nc(C(=O)Nc2ccc3c(c2)OC(F)(F)O3)cs1,> 10,"IC50 (PBLUC_HILL_SLOPE 15.0, 3.17, PBLUC_R_SQUARED 0.232, 0.795, read-out: LUCIFERASE INFECTION ASSAY - IC50): 7.96 µM"
CN1CCN(/N=C/c2c(-c3ccccc3)n(-c3ccccc3)c3ccccc23)CC1,> 10,"IC50 (PBLUC_HILL_SLOPE 15.1, PBLUC_R_SQUARED 0.218, read-out: LUCIFERASE INFECTION ASSAY - IC50): 9.13 µM"
CNc1snc(C)c1C(=O)Nc1ccc2oc(C(C)C)nc2c1,3.56,"IC50 (PBLUC_HILL_SLOPE 15, PBLUC_R_SQUARED 0.678, read-out: LUCIFERASE INFECTION ASSAY - IC50): 3.08 µM"
CSc1ncc(Nc2nc(-c3ccccc3)c(-c3ccccc3)s2)cn1,4.18,"IC50 (PBLUC_HILL_SLOPE 14.9, PBLUC_R_SQUARED 0.41, read-out: LUCIFERASE INFECTION ASSAY - IC50): 3.61 µM"
CNc1nc2cnc(-c3cccc(OC(F)(F)F)c3)cc2n1-c1cccc(F)c1,> 10,"IC50 (PBLUC_HILL_SLOPE 15.2, PBLUC_R_SQUARED 0.218, read-out: LUCIFERASE INFECTION ASSAY - IC50): 9.01 µM"
CC(C)(C)c1cc2nc(C(F)(F)F)cc(N/N=C/c3ccccc3)n2n1,> 9.13,"IC50 (PBLUC_HILL_SLOPE 15.2, PBLUC_R_SQUARED 0.244, read-out: LUCIFERASE INFECTION ASSAY - IC50): 8.24 µM"

# Reference: ChEMBL document CHEMBL4483862, “Open-source discovery of chemical leads for next-generation chemoprotective antimalarials” (2018)
